In BindingDB's records for doi:10.1007/pl00005131 (UniversitÄT WÜRzburg, 1998):

What was measured:
[1] = biological target: Adenosine receptor A2a (Homo sapiens, UniProt P29274)
[2] = biological target: T1, Adenosine receptor A3 (Homo sapiens, UniProt P0DMS8)
T1 sequence (P0DMS8 whole entry): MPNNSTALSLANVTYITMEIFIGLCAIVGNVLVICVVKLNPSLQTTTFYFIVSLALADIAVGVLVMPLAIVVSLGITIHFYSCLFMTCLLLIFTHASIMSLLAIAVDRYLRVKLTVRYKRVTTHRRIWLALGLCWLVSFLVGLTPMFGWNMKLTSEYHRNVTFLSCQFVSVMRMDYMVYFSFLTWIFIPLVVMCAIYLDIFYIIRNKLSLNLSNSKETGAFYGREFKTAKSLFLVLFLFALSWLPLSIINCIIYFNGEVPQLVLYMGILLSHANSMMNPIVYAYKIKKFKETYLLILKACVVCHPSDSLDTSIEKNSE

Adenosine receptor A2a, sequence (P29274 whole entry): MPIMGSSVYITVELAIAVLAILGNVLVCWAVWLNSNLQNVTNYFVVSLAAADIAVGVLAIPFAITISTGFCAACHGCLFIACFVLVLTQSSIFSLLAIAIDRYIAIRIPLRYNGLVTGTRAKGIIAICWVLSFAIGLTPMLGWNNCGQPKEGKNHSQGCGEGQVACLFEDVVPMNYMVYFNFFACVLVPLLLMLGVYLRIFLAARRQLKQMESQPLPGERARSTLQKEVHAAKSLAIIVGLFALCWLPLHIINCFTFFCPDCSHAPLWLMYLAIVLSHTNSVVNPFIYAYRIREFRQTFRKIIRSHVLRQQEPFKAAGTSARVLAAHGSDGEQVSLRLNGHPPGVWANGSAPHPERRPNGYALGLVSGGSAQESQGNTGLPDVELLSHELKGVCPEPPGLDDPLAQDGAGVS

`CNC(=O)[C@H]1O[C@@H](n2cnc3c(NCc4ccc(N)c(I)c4)ncnc32)[C@H](O)[C@@H]1O` was tested, and the Ki [1] was 0.471 µM.
Compound `Nc1nc2ccc(Cl)cc2c2nc(-c3ccco3)nn12` has a Ki [2] of 0.0508 µM.
For `CNC(=O)[C@H]1O[C@@H](n2cnc3c(NCc4ccc(N)cc4)ncnc32)[C@H](O)[C@@H]1O` [AB-MECA], the Ki [2] was 0.0215 µM.
`OC[C@H]1O[C@@H](n2cnc3c(NC4CCCC4)ncnc32)[C@H](O)[C@@H]1O` was tested, and the Ki [1] was 0.794 µM and the Ki [2] was 0.043 µM.
